Results published in patent US9796674B2, “Benzyl urea derivatives for activating TGF-beta signaling” (THE BOARD OF TRUSTEES OF THE LELAND STANFORD JUNIOR …, priority 2013, dated 2017).
Entries after “also recorded” stand apart in the source; their conditions may differ.

How the values were obtained:
TGF-β signaling = assay: Bioluminescence in SBE-luc reporter mice; assay type: in vivo, mouse; conditions: brain/CNS bioluminescence
Description: The most promising compounds out of these screens were tested for their neuroprotective potential in B103 rat neuroblastoma cells and primary mouse neurons derived from E16 forebrains. Compounds were also tested for their capacity to reduce varicosities and tortuosity in primary mouse neurons. Accordingly, novel neuroprotectant small molecules have been identified that are as potent or better than TGF-β. Importantly, they fulfilled the critical neuroprotective properties in neuronal cell lines and primary hippocampal mouse neurons. • Compounds based on the 11H core: The present compositions and methods include salts of the active compounds and formulations, in particular pharmaceutically acceptable compositions for administration to an animal or human subject and containing active compounds. 129 analogs or derivatives of 11H were screened by a cell-based assay for their ability to increase TGF-β activity, i.e. to act as a TGF agonist. In particular, one compound (a) designated as SRI-011381 (381) was identified as especially advantageous, although active derivatives thereof are contemplated and have been identified. • Effects of TGF-β analogs in vitro: Some of the small-molecule TGF-β agonist compounds were tested for neuroprotection activity and toxicity in vitro (cell culture). In addition, the mechanism of action of the agonists was explored using cells with different genetic backgrounds with respect to protein of the […] signaling pathway. • Animal studies: Transgenic mice harboring the SBE-luc reporter gene were generated and used to test the derivatives of compound 11H in vivo. These “reporter mice” mice express SBE-luc (i.e., “the transgene”) in all cells of the body. Intraperitoneal injection of luciferin into SBE-luc-expressing mice produces bioluminescence generated by luciferase and photons penetrating the skull can be imaged using sensitive camera systems.
SBE-luciferase transgenic mice: Two-month old SBE-luciferase transgenic mice receive different concentrations of a test compound either s.q., ip., or orally by gavage. […] Following administration of the test or control compounds, mice are injected with luciferin ip. At, for example, 2, 8, and 16 hours following injection of luciferin, the mice are imaged to detect bioluminescence as described above. Brains may be harvested 16 hours following test compound injection, and may be divided sagittally. For example, one hemi-brain can be homogenized in luciferase assay buffer for measurement of reporter gene activation, while the other hemi-brain can be frozen at −70° C. for future study, including sectioning into individual brain regions

B103 neuroblastoma cells = assay: B103 live/dead cell assay with Aβ; assay type: cell-based, rat; conditions: for cell survival, protection relative to TGF-β1: percentage of live cells / percentage of rescue
Description: SRI-11381 is neuroprotective in vitro: To determine if the TGF-β-inducing capacity of SRI-011381 would translate into biologically beneficial effects, its neuroprotective potential was tested in B103 rat neuroblastoma cells and primary mouse neurons derived from E16 forebrains. B103 neuroblastoma cells were cultured in 24-well plates and exposed to an oligomeric preparation of Aβ together with compounds or recombinant TGF-β.
FIGS. 3A-3H illustrate that SRI-011381 protects cultured neurons from Aβ toxicity. B103 neuroblastoma cells were incubated with Aβ for 24 h. The compounds and TGF-β were added 2 h before Aβ. Following incubations live and dead cells were assessed with calcein-acetoxymethylester (CAM) and SYTOX Orange (Invitrogen), respectively.
B103 neuroblastoma cells: B103 neuroblastoma cells were cultured in Dulbecco's modified Eagle's medium containing 10% fetal calf serum and 1% v/v penicillin/streptomycin (Invitrogen) in a 5% CO2: 95% air atmosphere. 10^4 cells/well were seeded onto 24 well plates and cultured for 24 h before Aβ was added. The compounds and TGF-β were added 2 h before Aβ. Following a 24 h incubation with Aβ, live and dead cells were assessed using calcein-acetoxymethylester (CAM) and SYTOX Orange (Invitrogen), respectively. AM is a membrane-permeable, fluorogenic esterase substrate that is hydrolyzed intracellularly to a green fluorescent product (calcein) in live cells. SYTOX Orange is a high-affinity nucleic acid stain that easily penetrates cells with compromised plasma membranes and yet will not cross the membranes of live cells. After incubation with SYTOX Orange, the nucleic acids of dead cells fluoresce bright orange. […] Five fields were randomly selected from each well and the cell numbers were analyzed by ImageJ (NIH) in a blinded fashion.

[1] = tested on: human macrophages differentiated from THP-1 monocytic cell lines; assay: Fibrillar Aβ clearance by THP-1 macrophages; assay type: cell-based; conditions: 24 h, 2, 5, or 10 μM
Description: SRI-011381 promotes Aβ clearance in cell culture: TGF-β1 promotes Aβ clearance in a microglia cell line. To test whether SRI-011381 has similar properties, mouse J774A.1 macrophages and human macrophages differentiated from THP-1 monocytic cell lines were treated with fibrillar Aβ in the absence or presence of compound (2, 5, or 10 μM) for 24 h. Conditioned medium was harvested and the remaining Aβ that was not phagocytosed by macrophages was quantified by Aβ ELISA.
FIGS. 4A and 4B present data from experiments in which human macrophages differentiated from THP-1 monocytic cell lines and mouse J774A.1 macrophages were incubated with fibrillar Aβ in the absence or presence of compound (2 or 5 μM) for 24 h. Conditioned medium was harvested and the remaining Aβ was quantified by Aβ ELISA. The collected medium (FIGS. 4C-4D) was added to N2A-APP-Swe cells (mouse Neuro-2A neuroblastoma cells stably expressing Swedish APP695) and incubated for 24 h. Neurotoxicity was quantified by an MTS Assay.
Mouse J774A.1 macrophages and human macrophages that were differentiated from THP-1 monocytic cell lines were treated with fibrillar Aβ42 in the absence or presence of SRI-011382 or its derivative compounds (2, 5, or 10 μM) for 24 h. Conditioned medium was harvested and the remaining Aβ42 that was not phagocytosed by macrophages was quantified by Aβ42 ELISA kit (Invitrogen). […]

[2] = Metabolic stability in human liver microsomes; assay type: in vitro ADME
Description: Metabolic Stability: SRI-011381 (1 and 10 μM) was incubated with human liver microsomes (pooled from several donors) and cofactors.

primary rat hepatocytes = assay: Cytotoxicity in primary rat hepatocytes; assay type: cell-based; conditions: 20 h
Description: (§1) In Vitro Cytotoxicity: The cytotoxicity of SRI-011381 was determined in primary rat hepatocytes and in VERO cells.
Rat hepatocytes were isolated by collagenase perfusion and allowed to form a monolayer overnight. The test compounds were added to the cells in 5 concentrations up to 250 μM. Cells were incubated with the test article for 20 h and then toxicity determined by the MTT cytotoxicity screen. Toxicity was evaluated against the vehicle control (DMSO) and a positive control, amitriptylin, was included with each experiment.

[3] = Cytotoxicity in VERO cells; assay type: cell-based; conditions: African green monkey, read-out: LC50 (the source's name)
Description: as §1
Cytotoxicity: In vitro cytotoxicity assays are used to estimate the relative toxicity of test compounds, e.g. a set of chemical analogs prior to efficacy screening. To estimate “basal” toxicity, a cell line such as VERO cells are typically used. Additional factors including drug metabolism can alter the relative toxicity of a compound in vivo. Primary cultures from liver (either laboratory species or human) can be used to assess the relative toxicity of compounds where metabolism may be a factor.

SMILES | activation of TGF-β signaling in SBE-luc reporter mice (TGF-β signaling) | activation of TGF-β signaling in SBE-luc reporter mice (TGF-β signaling; listed as 381) | cell survival, protection relative to TGF-β1 (B103 neuroblastoma cells) | fibrillar Aβ clearance [1] | fibrillar Aβ clearance ([1]; listed as SRI-11381) | compound unchanged ([2]; 1 and 10 μM, after 60 min) | LD50 (primary rat hepatocytes; rat hepatocytes, MTT) | CC50 [3] | cell survival, protection (B103 neuroblastoma cells; 1 μM, 5 μM Aβ) | cell survival, protection relative to TGF-β (B103 neuroblastoma cells; 3 μM, TGF-β 1 ng/ml) | Aβ-induced cell death (B103 neuroblastoma cells; Aβ 24 h, added 2 h before Aβ) | metabolic stability [2] | cytotoxicity in rat hepatocytes (primary rat hepatocytes; rat, 50 μM)
O=C(NC1CCCCC1)N(Cc1ccccc1)CC1CCNCC1 [SRI-011381, 1-Benzyl-3-cyclohexyl-1-(piperidin-4-ylmethyl)urea] | penetrate into the CNS and activate TGF-β signaling; also recorded: bioavailable in the CNS and activate TGF-β signaling; also recorded: activates TGF-β signaling in the brain | activates TGF-β signaling in reporter mice | better protection than TGF-β1 | promoted fibrillar Aβ clearance; also recorded: promoted fibrillar Aβ42 clearance | promote fibrillar Aβ42 clearance | Approximately 80% | greater than 250 μM | 167 µM |  |  |  |  | 
O=C(NC1CCCCC1)N(C/C=C/c1ccc(F)cc1)CC1CCNCC1 [SRI-011382] | bioavailable in the CNS and activate TGF-β signaling |  | better protection than TGF-β1 |  |  |  |  |  | slightly lower protection | better protection than TGF-β | inhibit Aβ-induced cell death | desirable level of metabolic stability | cytotoxic at 50 μM
